Structures are written as SMILES. Like-named read-outs stand apart in the source and are kept apart here.

Consider 5 compounds from patent publication US20100048696A1, “AGRICULTURAL DISEASE CONTROL AGENT” (Idemitsu Kosan Co., Ltd., priority 2007, published 2010).

What all share (type): cell-based
Holding throughout (details): 5 minutes

One test relates to Burkholderia plantarii. Briefly: Material disinfection test.
The subject of a further test is Pyricularia oryzae.
For another test, the system named is Burkholderia glumae. Briefly: Material disinfection test.
Another test has as its system Rhizoctonia solani. Kind of test: Material disinfection test.
For the next test, the system named is Botrytis cinerea. Briefly: Material disinfection test.
The test system of the next test is Fusarium oxysporum. Briefly: Material disinfection test.
A further test deals with Pythium ultimum. Briefly: Material disinfection test.
Another test concerns Ralstonia solanacearum.
In the next test the test system is Erwinia chrysanthemi. Kind of test: Material disinfection test.

Turning to `CC(=O)O` [Acetic acid], the “Average value of viable bacteria counts on all materials examined” value (shortened to “Average value of viable bacteria counts”) is reported as 1.2 × 10^3 cfu/ml in the test on Burkholderia plantarii (10 times solution sprayed); 8.3 × 10^6 cfu/ml in the test on Burkholderia plantarii (50 times solution sprayed); 5.0 × 10^2 cfu/ml in the test with Burkholderia glumae (10 times solution sprayed); 3.3 × 10^7 cfu/ml in the test on Burkholderia glumae (50 times solution sprayed); 2.8 × 10^2 cfu/ml in the test with Ralstonia solanacearum (10 times solution sprayed); 6.0 × 10^8 cfu/ml in the test with Ralstonia solanacearum (50 times solution sprayed). Moreover, the “Average value of viable bacteria counts” value is on record as 3.2 × 10^3 cfu/ml in the test on Erwinia chrysanthemi (10 times solution sprayed) and 1.1 × 10^7 cfu/ml with Erwinia chrysanthemi (50 times solution sprayed). The “average value of viable filamentous fungi counts on all materials examined” value in the test with Pyricularia oryzae (10 times solution sprayed) is on record as 98 cfu/ml; in the test with Pyricularia oryzae (50 times solution sprayed) it was 1.5 × 10^2 cfu/ml; with Rhizoctonia solani (10 times solution sprayed) it was 33 cfu/ml; in the test on Rhizoctonia solani (50 times solution sprayed), 3.1 × 10^2 cfu/ml; in the test on Botrytis cinerea (10 times solution sprayed) it was 65 cfu/ml; with Botrytis cinerea (50 times solution sprayed), 2.6 × 10^2 cfu/ml. Further, the “average value of viable filamentous fungi counts on all materials examined” value is 76 cfu/ml in the test on Fusarium oxysporum (10 times solution sprayed), 4.2 × 10^2 cfu/ml with Fusarium oxysporum (50 times solution sprayed), 58 cfu/ml in the test with Pythium ultimum (10 times solution sprayed) and 6.8 × 10^3 cfu/ml with Pythium ultimum (50 times solution sprayed).
`O=C1O[C@H]([C@@H](O)CO)C(O)=C1O` [Ascorbic acid]: the “Average value of viable bacteria counts” value is recorded as 1.6 × 10^7 cfu/ml with Burkholderia plantarii (10 times solution sprayed); 1.8 × 10^7 cfu/ml in the test on Burkholderia plantarii (50 times solution sprayed); 1.1 × 10^8 cfu/ml with Burkholderia glumae (10 times solution sprayed); 3.2 × 10^8 cfu/ml in the test on Burkholderia glumae (50 times solution sprayed); 8.5 × 10^8 cfu/ml in the test on Ralstonia solanacearum (10 times solution sprayed); 1.0 × 10^9 cfu/ml in the test on Ralstonia solanacearum (50 times solution sprayed). For the same compound, the “Average value of viable bacteria counts” value with Erwinia chrysanthemi (10 times solution sprayed) and with Erwinia chrysanthemi (50 times solution sprayed) was 1.0 × 10^8 cfu/ml throughout. The “average value of viable filamentous fungi counts on all materials examined” value in the test on Pyricularia oryzae (10 times solution sprayed) is listed as 4.2 × 10^4 cfu/ml; in the test on Pyricularia oryzae (50 times solution sprayed) it was 6.2 × 10^4 cfu/ml; in the test with Rhizoctonia solani (10 times solution sprayed) it was 1.3 × 10^5 cfu/ml; with Rhizoctonia solani (50 times solution sprayed), 2.0 × 10^5 cfu/ml; in the test with Botrytis cinerea (10 times solution sprayed), 4.5 × 10^5 cfu/ml; in the test with Botrytis cinerea (50 times solution sprayed), 5.0 × 10^5 cfu/ml. Besides, the “average value of viable filamentous fungi counts on all materials examined” value is given as 3.2 × 10^5 cfu/ml with Fusarium oxysporum (10 times solution sprayed), 4.7 × 10^5 cfu/ml in the test on Fusarium oxysporum (50 times solution sprayed), 2.3 × 10^4 cfu/ml with Pythium ultimum (10 times solution sprayed) and 1.5 × 10^4 cfu/ml with Pythium ultimum (50 times solution sprayed).
With `O=C(O)CC(O)(CC(=O)O)C(=O)O` [Citric acid], the “Average value of viable bacteria counts” value was 3.8 × 10^7 cfu/ml in the test on Burkholderia plantarii (10 times solution sprayed); 1.0 × 10^7 cfu/ml with Burkholderia plantarii (50 times solution sprayed); 2.6 × 10^8 cfu/ml with Burkholderia glumae (10 times solution sprayed); 1.7 × 10^8 cfu/ml in the test with Burkholderia glumae (50 times solution sprayed); 1.1 × 10^9 cfu/ml with Ralstonia solanacearum (10 times solution sprayed); 1.5 × 10^9 cfu/ml in the test on Ralstonia solanacearum (50 times solution sprayed). Further, the entries for the “Average value of viable bacteria counts” value in the test with Erwinia chrysanthemi (10 times solution sprayed) and in the test with Erwinia chrysanthemi (50 times solution sprayed) were 1.7 × 10^8 cfu/ml and 1.9 × 10^8 cfu/ml, respectively. Also, the “average value of viable filamentous fungi counts on all materials examined” value in the test with Pyricularia oryzae (50 times solution sprayed) is 3.2 × 10^4 cfu/ml; with Rhizoctonia solani (10 times solution sprayed) it was 2.0 × 10^5 cfu/ml; with Rhizoctonia solani (50 times solution sprayed) it was 1.7 × 10^5 cfu/ml; in the test on Botrytis cinerea (10 times solution sprayed) it was 2.6 × 10^5 cfu/ml; in the test with Botrytis cinerea (50 times solution sprayed), 4.6 × 10^5 cfu/ml; with Fusarium oxysporum (10 times solution sprayed), 3.7 × 10^5 cfu/ml. For the same compound, the “average value of viable filamentous fungi counts on all materials examined” value is reported as 3.4 × 10^5 cfu/ml with Fusarium oxysporum (50 times solution sprayed), 2.8 × 10^4 cfu/ml in the test with Pythium ultimum (10 times solution sprayed) and 1.7 × 10^4 cfu/ml in the test with Pythium ultimum (50 times solution sprayed).
For the compound `O=C(O)CC(O)C(=O)O` (centres unmarked) [Malic acid], the “Average value of viable bacteria counts” value in the test on Burkholderia plantarii (10 times solution sprayed) is recorded as 1.0 × 10^7 cfu/ml; in the test on Burkholderia plantarii (50 times solution sprayed), 3.2 × 10^7 cfu/ml; in the test on Burkholderia glumae (10 times solution sprayed), 3.6 × 10^8 cfu/ml; in the test on Burkholderia glumae (50 times solution sprayed) it was 5.2 × 10^8 cfu/ml; with Ralstonia solanacearum (10 times solution sprayed) it was 9.5 × 10^8 cfu/ml; with Ralstonia solanacearum (50 times solution sprayed), 7.8 × 10^8 cfu/ml. The “Average value of viable bacteria counts” value with Erwinia chrysanthemi (10 times solution sprayed) is on record as 1.4 × 10^8 cfu/ml; with Erwinia chrysanthemi (50 times solution sprayed), 1.2 × 10^8 cfu/ml. The “average value of viable filamentous fungi counts on all materials examined” value was 4.6 × 10^4 cfu/ml in the test with Pyricularia oryzae (10 times solution sprayed); 5.0 × 10^4 cfu/ml in the test with Pyricularia oryzae (50 times solution sprayed); 2.1 × 10^5 cfu/ml in the test with Rhizoctonia solani (10 times solution sprayed); 1.8 × 10^5 cfu/ml in the test with Rhizoctonia solani (50 times solution sprayed); 3.7 × 10^5 cfu/ml in the test with Botrytis cinerea (10 times solution sprayed); 2.9 × 10^5 cfu/ml in the test on Botrytis cinerea (50 times solution sprayed). Besides, the “average value of viable filamentous fungi counts on all materials examined” value in the test on Fusarium oxysporum (10 times solution sprayed) is recorded as 1.8 × 10^5 cfu/ml; in the test with Fusarium oxysporum (50 times solution sprayed) it was 4.5 × 10^5 cfu/ml; with Pythium ultimum (10 times solution sprayed) it was 2.5 × 10^4 cfu/ml; in the test on Pythium ultimum (50 times solution sprayed), 4.3 × 10^4 cfu/ml.
With `O=C(O)CCC(=O)O` [Succinic acid], the “Average value of viable bacteria counts” value in the test on Burkholderia plantarii (10 times solution sprayed) was 2.5 × 10^7 cfu/ml; in the test with Burkholderia plantarii (50 times solution sprayed) it was 2.6 × 10^7 cfu/ml; with Burkholderia glumae (10 times solution sprayed), 1.0 × 10^8 cfu/ml; in the test with Burkholderia glumae (50 times solution sprayed) it was 1.5 × 10^8 cfu/ml; in the test on Ralstonia solanacearum (10 times solution sprayed), 1.1 × 10^9 cfu/ml; in the test with Ralstonia solanacearum (50 times solution sprayed), 8.5 × 10^8 cfu/ml. The “Average value of viable bacteria counts” value with Erwinia chrysanthemi (10 times solution sprayed) and with Erwinia chrysanthemi (50 times solution sprayed) was 1.0 × 10^8 cfu/ml throughout. The “average value of viable filamentous fungi counts on all materials examined” value in the test with Pyricularia oryzae (10 times solution sprayed) was 3.2 × 10^4 cfu/ml; with Pyricularia oryzae (50 times solution sprayed) it was 3.1 × 10^4 cfu/ml; in the test on Rhizoctonia solani (10 times solution sprayed), 1.5 × 10^5 cfu/ml; with Rhizoctonia solani (50 times solution sprayed), 2.1 × 10^5 cfu/ml; with Botrytis cinerea (10 times solution sprayed) it was 3.5 × 10^5 cfu/ml; in the test on Botrytis cinerea (50 times solution sprayed) it was 4.3 × 10^5 cfu/ml. For the same compound, the “average value of viable filamentous fungi counts on all materials examined” value is 2.3 × 10^5 cfu/ml in the test with Fusarium oxysporum (10 times solution sprayed), 4.5 × 10^5 cfu/ml in the test on Fusarium oxysporum (50 times solution sprayed), 7.8 × 10^3 cfu/ml with Pythium ultimum (10 times solution sprayed) and 3.0 × 10^4 cfu/ml with Pythium ultimum (50 times solution sprayed).
